Source: patent US8003677B2, “2-heteroaryl-pyrrolo[3,4-c]pyrrole derivatives and their use as SCD inhibitors” (Sanofi-Aventis, priority 2007, dated 2011)

Molecular target: T1, SCD1 (Rattus norvegicus, UniProt P07308)
T1 construct: The resuspended microsome fraction was stored at −80° C; from tissue; host or cells: liver microsomes of male Wistar rats fed a carbohydrate-rich, low-fat diet
T1 sequence (P07308 1-358): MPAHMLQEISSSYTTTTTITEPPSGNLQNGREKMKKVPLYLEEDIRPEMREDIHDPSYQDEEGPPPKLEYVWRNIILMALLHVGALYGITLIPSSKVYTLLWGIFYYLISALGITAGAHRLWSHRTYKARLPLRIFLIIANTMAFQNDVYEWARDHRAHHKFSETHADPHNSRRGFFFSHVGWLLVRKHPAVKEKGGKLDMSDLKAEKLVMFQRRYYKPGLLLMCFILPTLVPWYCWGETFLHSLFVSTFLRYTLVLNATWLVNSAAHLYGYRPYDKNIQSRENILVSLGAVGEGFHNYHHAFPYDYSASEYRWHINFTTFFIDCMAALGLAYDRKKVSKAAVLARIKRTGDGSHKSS
Test: stearoyl-CoA desaturase (SCD1) activity in rat liver microsomes, TLC assay with 1-14C-labeled stearic acid
Format: biochemical
Conditions: inhibition of SCD1 activity; compound at 10 μM/l; 15 μg rat liver microsomes (male Wistar rats); 37° C., 1 h
Procedure: The efficacy of the inventive compounds of the formula I was tested with microsomal enzymes in the following assay system:
The livers of male Wistar rats which (to induce the expression of SCD1) had been fed with a carbohydrate-rich, low-fat diet were homogenized with a Potter tissue homogenizer and differential centrifugation in a buffer which contained 250 mM/l of sucrose and 5 mM/l of HEPES (pH 7.0). The resuspended microsome fraction was stored at −80° C. The stearoyl-CoA desaturase activity was determined in a thin-film chromatography assay with 1-^14C-labeled stearic acid. In short, the particular inventive compounds (in DMSO in a final concentration of 1% [v/v]) were incubated with 15 μg of the rat liver microsomes in 200 μl of assay buffer (6 mM/l of MgCl2, 250 mM/l of sucrose, 150 mM/l of KCl, 40 mM/l of NaF, 100 mM/l of Na2HPO4 (pH7.4), 1.3 mM/l of ATP, 1.5 mM/l of reduced glutathione, 60 uM/l of CoA, 0.33 mM/l of nicotinamide and 0.94 mM/l of NADH) at room temperature for 10 min. 0.5 μCi [1-^14C]-stearic acid (55 mCi/mmol) was added, and the mixture was incubated at 37° C. for 1 h. The radioactively labeled fatty acids were subsequently hydrolyzed at 65° C. with 2.5 M KOH/MeOH:H2O (4:1) for 4 h, protonated with 280 μl of formic acid and extracted with 500 μl of hexane. The TLC plates were immersed into 10% AgNO3 and heat-activated before use. 150 μl of the hexane phase were applied to the plates, and the TLC plates were developed in buffer (chloroform:methanol:acetic acid:water [90:8:1:0.8]) and dried. The plates were read off in a phosphoimager to quantify the SCD1 activity.
The person skilled in the art can modify this assay in various aspects to determine the inhibition of the stearoyl-CoA desaturase activity.

Q: Which inhibition at 10 µM does the source give for `CCOC(=O)c1cnc(N2CC3=C(CN(C(=O)c4ccccc4C(F)(F)F)C3)C2)s1` [Example 1, Ethyl 2-[5-(2-trifluoromethylbenzoyl)-3,4,5,6-tetrahydro-1H-pyrrolo[3,4-c]pyrrol-2-yl]thiazole-5-carboxylate] here?
A: 65%

Q: For `O=C(NCCC1CC1)c1cnc(N2CC3=C(CN(C(=O)c4ccccc4C(F)(F)F)C3)C2)s1` [Example 2, N-(2-Cyclopropylethyl)-2-[5-(2-trifluoromethylbenzoyl)-3,4,5,6-tetrahydro-1H-pyrrolo-[3,4-c]pyrrol-2-yl]thiazole-5-carboxamide], which inhibition at 10 µM is on record?
A: 31%

Q: How did the inhibition at 10 µM turn out when `O=C(NCCCc1ccccc1)c1cnc(N2CC3=C(CN(C(=O)c4ccccc4C(F)(F)F)C3)C2)s1` [Example 9, N-(3-Phenylpropyl)-2-[5-(2-trifluoromethylbenzoyl)-3,4,5,6-tetrahydro-1H-pyrrolo[3,4-c]-pyrrol-2-yl]thiazole-5-carboxamide] was run?
A: 26%

Q: `CC(C)CCNC(=O)c1ccc(N2CC3=C(CN(C(=O)c4ccccc4C(F)(F)F)C3)C2)nc1` [Example 10, N-(3-Methylbutyl)-6-[5-(2-trifluoromethylbenzoyl)-3,4,5,6-tetrahydro-1H-pyrrolo[3,4-c]-pyrrol-2-yl]nicotinamide] was tested. Which inhibition at 10 µM did it give?
A: 100%

Q: How did the inhibition at 10 µM turn out when `O=C(NCCc1ccccc1)c1ccc(N2CC3=C(CN(C(=O)c4ccccc4C(F)(F)F)C3)C2)nc1` [Example 13, N-Phenethyl-6-[5-(2-trifluoromethylbenzoyl)-3,4,5,6-tetrahydro-1H-pyrrolo[3,4-c]pyrrole-2-yl]nicotinamide] was run?
A: 100%

Q: `O=C(NCCC1CC1)c1ccc(N2CC3=C(CN(C(=O)c4ccccc4C(F)(F)F)C3)C2)nc1` [Example 14, N-(2-Cyclopropylethyl)-6-[5-(2-trifluoromethylbenzoyl)-3,4,5,6-tetrahydro-1H-pyrrolo-[3,4-c]pyrrol-2-yl]nicotinamide] was tested. Which inhibition at 10 µM did it give?
A: 100%

Q: How did the inhibition at 10 µM turn out when `O=C(NCc1nccs1)c1ccc(N2CC3=C(CN(C(=O)c4ccccc4C(F)(F)F)C3)C2)nc1` [Example 15, N-Thiazol-2-ylmethyl-6-[5-(2-trifluoromethylbenzoyl)-3,4,5,6-tetrahydro-1H-pyrrolo-[3,4-c]pyrrol-2-yl]nicotinamide] was run?
A: 100%

Q: Which inhibition at 10 µM does the source give for `CN(Cc1nccs1)C(=O)c1ccc(N2CC3=C(CN(C(=O)c4ccccc4C(F)(F)F)C3)C2)nc1` [Example 16, N-Methyl-N-thiazol-2-ylmethyl-6-[5-(2-trifluoromethylbenzoyl)-3,4,5,6-tetrahydro-1H-pyrrolo[3,4-c]pyrrol-2-yl]nicotinamide] here?
A: 100%

Q: Which inhibition at 10 µM does the source give for `O=C(NCC1CC1)c1ccc(N2CC3=C(CN(C(=O)c4ccccc4C(F)(F)F)C3)C2)nc1` [Example 17, N-Cyclopropylmethyl-6-[5-(2-trifluoromethylbenzoyl)-3,4,5,6-tetrahydro-1H-pyrrolo-[3,4-c]pyrrol-2-yl]nicotinamide] here?
A: 97%

Q: `CCC(O)CCNC(=O)c1ccc(N2CC3=C(CN(C(=O)c4cc(OC)ccc4Br)C3)C2)nn1` (centres unmarked) [Example 18, N-(3-Hydroxypentyl)-6-[5-(2-bromo-5-methoxybenzoyl)-3,4,5,6-tetrahydro-1H-pyrrolo-[3,4-c]pyrrol-2-yl]pyridazine-3-carboxamide] was tested. Which inhibition at 10 µM did it give?
A: 38%

Q: With `O=C(NCCC1CC1)c1ccc(N2CC3=C(CN(C(=O)c4ccccc4C(F)(F)F)C3)C2)nn1` [Example 19, N-(2-Cyclopropylethyl)-6-[5-(2-trifluoromethylbenzoyl)-3,4,5,6-tetrahydro-1H-pyrrolo-[3,4-c]pyrrol-2-yl]pyridazine-3-carboxamide] as the compound, how does the inhibition at 10 µM read?
A: 100%

Q: `O=C(NCc1cncs1)c1ccc(N2CC3=C(CN(C(=O)c4ccccc4C(F)(F)F)C3)C2)nc1` [Example 20, N-Thiazol-5-ylmethyl-6-[5-(2-trifluoromethylbenzoyl)-3,4,5,6-tetrahydro-1H-pyrrolo-[3,4-c]pyrrol-2-yl]nicotinamide] was tested. Which inhibition at 10 µM did it give?
A: 100%

Q: `O=C(NCC1CCCC1)c1ccc(N2CC3=C(CN(C(=O)c4ccccc4C(F)(F)F)C3)C2)nc1` [Example 21, N-Cyclopentylmethyl-6-[5-(2-trifluoromethylbenzoyl)-3,4,5,6-tetrahydro-1H-pyrrolo-[3,4-c]pyrrol-2-yl]nicotinamide] was tested. Which inhibition at 10 µM did it give?
A: 100%

Q: With `O=C(NCCC1CCCC1)c1ccc(N2CC3=C(CN(C(=O)c4ccccc4C(F)(F)F)C3)C2)nc1` [Example 22, N-(2-Cyclopentylethyl)-6-[5-(2-trifluoromethylbenzoyl)-3,4,5,6-tetrahydro-1H-pyrrolo-[3,4-c]pyrrol-2-yl]nicotinamide] as the compound, how does the inhibition at 10 µM read?
A: 100%
